Measured values from PubChem BioAssay AID1963848 (Molecular Pharmacology Branch, DTP, NCI, 2024).

System: 379773-124-R-J2-PDC spheroid viability
Assay: Anticancer human tumor 379773-124-R-J2-PDC patient-derived endometrial carcinoma cell line growth inhibition [POLQ]
Conditions: spheroids with HUVEC and MSC; for IC50: curve of first compound; for viability, T/C: stronger effect = lower value
How it was run: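 PDC + HUVEC + MSC complex spheroids; POLQ inhibitors ± partner drugs; top conc. at/near clinical Cmax, else 10 microM (SN-38 1 microM), half-log dilutions; 37 degrees C, 5% CO2.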

[1] = second compound 0.0316 µM, first compound 0.0316 µM
[2] = second compound 0.0316 µM, first compound 0.1 µM
[3] = second compound 0.0316 µM, first compound 0.316 µM
[4] = second compound 0.0316 µM, first compound 1 µM
[5] = second compound 0.0316 µM, first compound 3.16 µM
[6] = second compound 0.0316 µM, first compound 10 µM
[7] = second compound 0.1 µM, first compound 0.0316 µM
[8] = second compound 0.1 µM, first compound 0.1 µM
[9] = second compound 0.1 µM, first compound 0.316 µM
[10] = second compound 0.1 µM, first compound 1 µM
[11] = second compound 0.1 µM, first compound 3.16 µM
[12] = second compound 0.1 µM, first compound 10 µM
[13] = second compound 0.316 µM, first compound 0.0316 µM
[14] = second compound 0.316 µM, first compound 0.1 µM
[15] = second compound 0.316 µM, first compound 0.316 µM
[16] = second compound 0.316 µM, first compound 1 µM
[17] = second compound 0.316 µM, first compound 3.16 µM
[18] = second compound 0.316 µM, first compound 10 µM
[19] = second compound 1 µM, first compound 0.0316 µM
[20] = second compound 1 µM, first compound 0.1 µM
[21] = second compound 1 µM, first compound 0.316 µM
[22] = second compound 1 µM, first compound 1 µM
[23] = second compound 1 µM, first compound 3.16 µM
[24] = second compound 1 µM, first compound 10 µM
[25] = second compound 3.16 µM, first compound 0.0316 µM
[26] = second compound 3.16 µM, first compound 0.1 µM
[27] = second compound 3.16 µM, first compound 0.316 µM
[28] = second compound 3.16 µM, first compound 1 µM
[29] = second compound 3.16 µM, first compound 3.16 µM
[30] = second compound 3.16 µM, first compound 10 µM
[31] = second compound 10 µM, first compound 0.0316 µM
[32] = second compound 10 µM, first compound 0.1 µM
[33] = second compound 10 µM, first compound 0.316 µM
[34] = second compound 10 µM, first compound 1 µM
[35] = second compound 10 µM, first compound 3.16 µM
[36] = second compound 10 µM, first compound 10 µM
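Note: spheroids exposed to drugs for seven days before readout.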
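Throughout, for viability, T/C: percent viability relative to DMSO vehicle control taken as 100%.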

SMILES: C#Cc1c(F)ccc2cc(O)cc(-c3ncc4c(N5CC6CCC(C5)N6)nc(OCC56CCCN5CC(F)C6)nc4c3F)c12 (stereo unspecified) + COC1C(OC(N)=O)C(O)C(Oc2ccc3c(O)c(NC(=O)c4ccc(O)c(CC=C(C)C)c4)c(=O)oc3c2C)OC1(C)C
- IC50 (second compound 0.0316 µM): > 10 µM
- IC50 (second compound 0.1 µM): > 10 µM
- IC50 (second compound 0.316 µM): > 10 µM
- IC50 (second compound 1 µM): > 10 µM
- IC50 (second compound 3.16 µM): > 10 µM
- IC50 (second compound 10 µM): > 10 µM
- viability, T/C [1]: 89%
- viability, T/C [2]: 85.8%
- viability, T/C [3]: 84.4%
- viability, T/C [4]: 81%
- viability, T/C [5]: 97.9%
- viability, T/C [6]: 88.6%
- viability, T/C [7]: 95.8%
- viability, T/C [8]: 78.2%
- viability, T/C [9]: 92.1%
- viability, T/C [10]: 75.5%
- viability, T/C [11]: 77.4%
- viability, T/C [12]: 95%
- viability, T/C [13]: 91%
- viability, T/C [14]: 83.9%
- viability, T/C [15]: 79.7%
- viability, T/C [16]: 84.5%
- viability, T/C [17]: 87.6%
- viability, T/C [18]: 93.4%
- viability, T/C [19]: 80.8%
- viability, T/C [20]: 84.3%
- viability, T/C [21]: 89.9%
- viability, T/C [22]: 86.8%
- viability, T/C [23]: 75%
- viability, T/C [24]: 93.9%
- viability, T/C [25]: 78.5%
- viability, T/C [26]: 81.7%
- viability, T/C [27]: 90.2%
- viability, T/C [28]: 78.5%
- viability, T/C [29]: 89.7%
- viability, T/C [30]: 96.8%
- viability, T/C [31]: 75.3%
- viability, T/C [32]: 85.8%
- viability, T/C [33]: 103%
- viability, T/C [34]: 79.4%
- viability, T/C [35]: 75.8%
- viability, T/C [36]: 106%

SMILES: C=CC(=O)N1CCN(c2nc(=O)n(-c3c(C)ccnc3C(C)C)c3nc(-c4c(O)cccc4F)c(F)cc23)C(C)C1 (stereo unspecified) + COC1C(OC(N)=O)C(O)C(Oc2ccc3c(O)c(NC(=O)c4ccc(O)c(CC=C(C)C)c4)c(=O)oc3c2C)OC1(C)C
- IC50 (second compound 0.0316 µM): > 10 µM
- IC50 (second compound 0.1 µM): > 10 µM
- IC50 (second compound 0.316 µM): > 10 µM
- IC50 (second compound 1 µM): > 10 µM
- IC50 (second compound 3.16 µM): > 10 µM
- IC50 (second compound 10 µM): > 10 µM
- viability, T/C [1]: 87.3%
- viability, T/C [2]: 78.7%
- viability, T/C [3]: 91.3%
- viability, T/C [4]: 85.1%
- viability, T/C [5]: 85.7%
- viability, T/C [6]: 72.1%
- viability, T/C [7]: 87.3%
- viability, T/C [8]: 87.2%
- viability, T/C [9]: 82.2%
- viability, T/C [10]: 91.1%
- viability, T/C [11]: 87.9%
- viability, T/C [12]: 95%
- viability, T/C [13]: 91.2%
- viability, T/C [14]: 86.7%
- viability, T/C [15]: 86.8%
- viability, T/C [16]: 85.1%
- viability, T/C [17]: 79.3%
- viability, T/C [18]: 82.6%
- viability, T/C [19]: 92.1%
- viability, T/C [20]: 94.8%
- viability, T/C [21]: 93.9%
- viability, T/C [22]: 88.8%
- viability, T/C [23]: 73.8%
- viability, T/C [24]: 95.8%
- viability, T/C [25]: 73.2%
- viability, T/C [26]: 84.6%
- viability, T/C [27]: 82.9%
- viability, T/C [28]: 85%
- viability, T/C [29]: 85.9%
- viability, T/C [30]: 72.1%
- viability, T/C [31]: 91.1%
- viability, T/C [32]: 85.1%
- viability, T/C [33]: 81.5%
- viability, T/C [34]: 80.5%
- viability, T/C [35]: 86%
- viability, T/C [36]: 89.4%

SMILES: CC(C)n1c(=O)n(C)c2cnc3cc(F)c(-c4ccc(OCCCN5CCCCC5)nc4)cc3c21 + COC1C(OC(N)=O)C(O)C(Oc2ccc3c(O)c(NC(=O)c4ccc(O)c(CC=C(C)C)c4)c(=O)oc3c2C)OC1(C)C
- IC50 (second compound 0.0316 µM): > 10 µM
- IC50 (second compound 0.1 µM): > 10 µM
- IC50 (second compound 0.316 µM): > 10 µM
- IC50 (second compound 1 µM): > 10 µM
- IC50 (second compound 3.16 µM): > 10 µM
- IC50 (second compound 10 µM): > 10 µM
- viability, T/C [1]: 92.3%
- viability, T/C [2]: 74%
- viability, T/C [3]: 86.2%
- viability, T/C [4]: 75.7%
- viability, T/C [5]: 67.5%
- viability, T/C [6]: 56.5%
- viability, T/C [7]: 85.2%
- viability, T/C [8]: 87.4%
- viability, T/C [9]: 87.5%
- viability, T/C [10]: 76.6%
- viability, T/C [11]: 64.3%
- viability, T/C [12]: 68.4%
- viability, T/C [13]: 99.1%
- viability, T/C [14]: 81.2%
- viability, T/C [15]: 84%
- viability, T/C [16]: 75.3%
- viability, T/C [17]: 67.5%
- viability, T/C [18]: 60.5%
- viability, T/C [19]: 85.5%
- viability, T/C [20]: 81.2%
- viability, T/C [21]: 77.4%
- viability, T/C [22]: 71.7%
- viability, T/C [23]: 69.8%
- viability, T/C [24]: 75.7%
- viability, T/C [25]: 78%
- viability, T/C [26]: 81.7%
- viability, T/C [27]: 77.7%
- viability, T/C [28]: 68.1%
- viability, T/C [29]: 77.7%
- viability, T/C [30]: 80.4%
- viability, T/C [31]: 80.2%
- viability, T/C [32]: 74.6%
- viability, T/C [33]: 79.7%
- viability, T/C [34]: 72.2%
- viability, T/C [35]: 80.7%
- viability, T/C [36]: 64.9%
